How the values were obtained:
Experiment in all cases: Inhibition of bacteria growth, drug dilution tubes, anaerobic
Format in all cases: cell-based
Set-up in all cases: key: (+) for growth; (−) for no growth; (±) for suboptimal growth after an initial observation of growth
[1] = tested on: Bacteroides fragilis ATCC 25285
Protocol: (§1) Serial dilutions of tinidazole and terconazole were prepared by adding measured amounts of each substance to water (both individually and in combination). Seven bacterial organisms that are common pathogens in bacterial vaginosis were grown anaerobically in the medium as listed in Table 4 under a N2/H2/CO2 (85:5:10) head space atmosphere. [table] These cultures were diluted to a 0.5 McFarland standard prior to inoculation of drug dilution tubes. One (1) mL of the 0.5 McFarland preparation was inoculated to an anaerobically prepared test tube containing 0.8 mL of Difco anaerobic medium (DAMM) and 0.2 mL of appropriate diluted antimicrobial or antimicrobial combination for a total of 2 mL. The inoculated tubes were then incubated at 37° C. and monitored daily for growth. Growth was scored with a (+) for growth, (−) for no growth, and (±) for suboptimal growth after an initial observation of growth. Tinidazole is abbreviated as TNZ and terconazole is abbreviated as TER in Tables 5 through 11.

[2] = tested on: Mobiluncus curtisii var. curtisii ATCC 35241
Protocol: as §1

[3] = tested on: Mobiluncus curtisii var. holmesii ATCC 35242
Protocol: as §1

CC(C)N1CCN(c2ccc(OCC3COC(Cn4cncn4)(c4ccc(Cl)cc4Cl)O3)cc2)CC1 (stereo not drawn) [TER, cis-1-[p[[2-(2,4-dichlorophenyl)-2-(1 H-1,2,4-triazol-1-ylmethyl)-1,3-dioxolan-4-yl]methoxy]phenyl]-4-isopropylpiperazine]
growth ([1]; TER 3.1 μg/ml, DAY 1): (+) | growth ([1]; TER 3.1 μg/ml, DAY 2): (+) | growth ([1]; TER 3.1 μg/ml, DAY 3): (+) | growth ([1]; TER 3.1 μg/ml, DAY 4): (+) | growth ([1]; TER 3.1 μg/ml, DAY 5): (+) | growth ([1]; TER 6.2 μg/ml, DAY 1): (+) | growth ([1]; TER 6.2 μg/ml, DAY 2): (+) | growth ([1]; TER 6.2 μg/ml, DAY 3): (+) | growth ([1]; TER 6.2 μg/ml, DAY 4): (+) | growth ([1]; TER 6.2 μg/ml, DAY 5): (+) | growth ([1]; TER 12.5 μg/ml, DAY 1): (+) | growth ([1]; TER 12.5 μg/ml, DAY 2): (+) | growth ([1]; TER 12.5 μg/ml, DAY 3): (+) | growth ([1]; TER 12.5 μg/ml, DAY 4): (+) | growth ([1]; TER 12.5 μg/ml, DAY 5): (+) | growth ([1]; TER 25 μg/ml, DAY 1): (+) | growth ([1]; TER 25 μg/ml, DAY 2): (+) | growth ([1]; TER 25 μg/ml, DAY 3): (+) | growth ([1]; TER 25 μg/ml, DAY 4): (+) | growth ([1]; TER 25 μg/ml, DAY 5): (+) | growth ([1]; TER 50 μg/ml, DAY 1): (+) | growth ([1]; TER 50 μg/ml, DAY 2): (+) | growth ([1]; TER 50 μg/ml, DAY 3): (+) | growth ([1]; TER 50 μg/ml, DAY 4): (+) | growth ([1]; TER 50 μg/ml, DAY 5): (+) | growth ([1]; TER 100 μg/ml, DAY 1): (+) | growth ([1]; TER 100 μg/ml, DAY 2): (+) | growth ([1]; TER 100 μg/ml, DAY 3): (+) | growth ([1]; TER 100 μg/ml, DAY 4): (+) | growth ([1]; TER 100 μg/ml, DAY 5): (+) | growth ([1]; TER 200 μg/ml, DAY 1): (−) | growth ([1]; TER 200 μg/ml, DAY 2): (−) | growth ([1]; TER 200 μg/ml, DAY 3): (+) | growth ([1]; TER 200 μg/ml, DAY 4): (+) | growth ([1]; TER 200 μg/ml, DAY 5): (+) | growth ([1]; TER 400 μg/ml, DAY 1): (−) | growth ([1]; TER 400 μg/ml, DAY 2): (−) | growth ([1]; TER 400 μg/ml, DAY 3): (−) | growth ([1]; TER 400 μg/ml, DAY 4): (−) | growth ([1]; TER 400 μg/ml, DAY 5): (−) | growth ([1]; TER 800 μg/ml, DAY 1): (−) | growth ([1]; TER 800 μg/ml, DAY 2): (−) | growth ([1]; TER 800 μg/ml, DAY 3): (−) | growth ([1]; TER 800 μg/ml, DAY 4): (−) | growth ([1]; TER 800 μg/ml, DAY 5): (−) | growth ([2]; TER 3.1 μg/ml, DAY 1): (+) | growth ([2]; TER 3.1 μg/ml, DAY 2): (+) | growth ([2]; TER 3.1 μg/ml, DAY 3): (+) | growth ([2]; TER 3.1 μg/ml, DAY 4): (+) | growth ([2]; TER 3.1 μg/ml, DAY 5): (+) | growth ([2]; TER 6.2 μg/ml, DAY 1): (+) | growth ([2]; TER 6.2 μg/ml, DAY 2): (+) | growth ([2]; TER 6.2 μg/ml, DAY 3): (+) | growth ([2]; TER 6.2 μg/ml, DAY 4): (+) | growth ([2]; TER 6.2 μg/ml, DAY 5): (+) | growth ([2]; TER 12.5 μg/ml, DAY 1): (+) | growth ([2]; TER 12.5 μg/ml, DAY 2): (+) | growth ([2]; TER 12.5 μg/ml, DAY 3): (+) | growth ([2]; TER 12.5 μg/ml, DAY 4): (+) | growth ([2]; TER 12.5 μg/ml, DAY 5): (+) | growth ([2]; TER 25 μg/ml, DAY 1): (+) | growth ([2]; TER 25 μg/ml, DAY 2): (+) | growth ([2]; TER 25 μg/ml, DAY 3): (+) | growth ([2]; TER 25 μg/ml, DAY 4): (+) | growth ([2]; TER 25 μg/ml, DAY 5): (+) | growth ([2]; TER 50 μg/ml, DAY 1): (+) | growth ([2]; TER 50 μg/ml, DAY 2): (+) | growth ([2]; TER 50 μg/ml, DAY 3): (+) | growth ([2]; TER 50 μg/ml, DAY 4): (+) | growth ([2]; TER 50 μg/ml, DAY 5): (+) | growth ([2]; TER 100 μg/ml, DAY 1): (+) | growth ([2]; TER 100 μg/ml, DAY 2): (+) | growth ([2]; TER 100 μg/ml, DAY 3): (+) | growth ([2]; TER 100 μg/ml, DAY 4): (+) | growth ([2]; TER 100 μg/ml, DAY 5): (+) | growth ([2]; TER 200 μg/ml, DAY 1): (−) | growth ([2]; TER 200 μg/ml, DAY 2): (+) | growth ([2]; TER 200 μg/ml, DAY 5): (+) | growth ([2]; TER 400 μg/ml, DAY 1): (−) | growth ([2]; TER 400 μg/ml, DAY 2): (−) | growth ([2]; TER 400 μg/ml, DAY 3): (−) | growth ([2]; TER 400 μg/ml, DAY 4): (−) | growth ([2]; TER 400 μg/ml, DAY 5): (+) | growth ([2]; TER 800 μg/ml, DAY 1): (−) | growth ([2]; TER 800 μg/ml, DAY 2): (−) | growth ([2]; TER 800 μg/ml, DAY 3): (−) | growth ([2]; TER 800 μg/ml, DAY 4): (−) | growth ([2]; TER 800 μg/ml, DAY 5): (+) | growth ([3]; TER 3.1 μg/ml, DAY 1): (+) | growth ([3]; TER 3.1 μg/ml, DAY 2): (+) | growth ([3]; TER 3.1 μg/ml, DAY 3): (+) | growth ([3]; TER 3.1 μg/ml, DAY 4): (+) | growth ([3]; TER 3.1 μg/ml, DAY 5): (+) | growth ([3]; TER 6.2 μg/ml, DAY 1): (+) | growth ([3]; TER 6.2 μg/ml, DAY 2): (+) | growth ([3]; TER 6.2 μg/ml, DAY 3): (+) | growth ([3]; TER 6.2 μg/ml, DAY 4): (+) | growth ([3]; TER 6.2 μg/ml, DAY 5): (+) | growth ([3]; TER 12.5 μg/ml, DAY 1): (+) | growth ([3]; TER 12.5 μg/ml, DAY 2): (+) | growth ([3]; TER 12.5 μg/ml, DAY 3): (+) | growth ([3]; TER 12.5 μg/ml, DAY 4): (+) | growth ([3]; TER 12.5 μg/ml, DAY 5): (+) | growth ([3]; TER 25 μg/ml, DAY 1): (+) | growth ([3]; TER 25 μg/ml, DAY 2): (+) | growth ([3]; TER 25 μg/ml, DAY 3): (+) | growth ([3]; TER 25 μg/ml, DAY 4): (+) | growth ([3]; TER 25 μg/ml, DAY 5): (+) | growth ([3]; TER 50 μg/ml, DAY 1): (+) | growth ([3]; TER 50 μg/ml, DAY 2): (+) | growth ([3]; TER 50 μg/ml, DAY 3): (+) | growth ([3]; TER 50 μg/ml, DAY 4): (+) | growth ([3]; TER 50 μg/ml, DAY 5): (+) | growth ([3]; TER 100 μg/ml, DAY 1): (+) | growth ([3]; TER 100 μg/ml, DAY 2): (+) | growth ([3]; TER 100 μg/ml, DAY 3): (+) | growth ([3]; TER 100 μg/ml, DAY 4): (+) | growth ([3]; TER 100 μg/ml, DAY 5): (+) | growth ([3]; TER 200 μg/ml, DAY 1): (+) | growth ([3]; TER 200 μg/ml, DAY 5): (+) | growth ([3]; TER 400 μg/ml, DAY 1): (+) | growth ([3]; TER 400 μg/ml, DAY 5): (+) | growth ([3]; TER 800 μg/ml, DAY 1): (+) | growth ([3]; TER 800 μg/ml, DAY 5): (+)

From patent US20080063668A1, “Nitroimidazole and terconazole composition and method” (priority 2006, published 2008)
